Assay results published in patent publication US6475502B1, “Kits containing cyanoacrylate compositions comprising an antimicrobial agent” (Flowers Park Ltd., priority 1997, dated 2002).
Structures can show the parent of a compound that is named as a salt. Where two headings read alike, the source gives them in different places.

Key:
[1] = Premature polymerization (gel formation) of the cyanoacrylate composition after mixing with the antimicrobial agent; type: physicochemical; details: for Period over which the composition polymerized after mixing: 5 weight percent agent based on total weight of composition; for Compatibility with the cyanoacrylate composition: overall conclusion of Example 1, for tetracycline hydrochloride and hexachlorophene when mixed immediately prior to use
[2] = Solubility or suspendability of the antimicrobial agent in the n-butyl cyanoacrylate composition

SMILES | Period over which the composition polymerized after mixing [1] [h] | Compatibility with the cyanoacrylate composition [1] | Soluble [2] | Soluble ([2]; in monomeric n-butyl cyanoacrylate with 100 ppm sulfur dioxide and 20 weight percent dioctyl phthalate, agent conc. per column Conc. (~20% iodine, 10% PVP-I2, 5% others))
CN(C)[C@@H]1C(O)=C(C(N)=O)C(=O)[C@@]2(O)C(O)=C3C(=O)c4c(O)cccc4[C@@](C)(O)[C@H]3C[C@@H]12 [tetracycline hydrochloride] | ~48 | compatible | – | –
II [elemental iodine (I2), elemental iodine] | – | – | partially | –
O=C([O-])c1ccccc1-c1c2cc(Br)c(=O)cc-2oc2[c]([Hg+])c([O-])c(Br)cc12.[Na+].[Na+].[OH-] [Merbromin, merbromin] | – | – | – | no, gelled^1
CC[C@H]1OC(=O)[C@H](C)[C@@H](O[C@H]2C[C@@](C)(OC)[C@@H](O)[C@H](C)O2)[C@H](C)[C@@H](O[C@@H]2O[C@H](C)C[C@H](N(C)C)[C@H]2O)[C@](C)(O)C[C@@H](C)C(=O)[C@H](C)[C@@H](O)[C@]1(C)O [Erythromycin, erythromycin] | – | – | no, gelled^1 | –
Oc1c(Cl)cc(Cl)c(Cl)c1Cc1c(O)c(Cl)cc(Cl)c1Cl [hexachlorophene] | ~48 | compatible | – | –
